# Data: paper PMC5218480 (PLoS ONE, 2017)
# Test system: MV-4-11 cells
# Test: Gene expression microarray analysis (Affymetrix PrimeView) and GSEA
# Type: cell-based, human
# Design: RFU PODN (11730768_x_at) / Fold change /veh PODN (11730768_x_at) / RFU LINC00158 (11744669_a_at) / Fold change /veh LINC00158 (11744669_a_at) / RFU DUSP10 (11751237_a_at) / Fold change /veh DUSP10 (11751237_a_at) / RFU ID3 (11757404_x_at) / Fold change /veh ID3 (11757404_x_at) / RFU PLEKHG5 (11737974_s_at) / Fold change /veh PLEKHG5 (11737974_s_at) / RFU LRRC4B (11730491_at) / Fold change /veh LRRC4B (11730491_at) / RFU GIMAP4 (11747438_a_at) / Fold change /veh GIMAP4 (11747438_a_at) / RFU KRT8 (11758183_x_at) / Fold change /veh KRT8 (11758183_x_at) / RFU CNN1 (11734310_a_at) / Fold change /veh CNN1 (11734310_a_at) / RFU VPS37D (11726825_at) / Fold change /veh VPS37D (11726825_at) / RFU C10orf10 (11716522_x_at) / Fold change /veh C10orf10 (11716522_x_at) / RFU KIR2DL2 /// KIR2DL4 /// KIR2DL5A /// KIR2DL5B /// KIR2DS1 /// KIR2DS2 /// KIR2DS3 /// KIR2DS4 /// KIR3DL3 /// KIR3DL3 /// KIR3DS1 (11738374_at) / Fold change /veh KIR2DL2 /// KIR2DL4 /// KIR2DL5A /// KIR2DL5B /// KIR2DS1 /// KIR2DS2 /// KIR2DS3 /// KIR2DS4 /// KIR3DL3 /// KIR3DL3 /// KIR3DS1 (11738374_at) / RFU C1QL1 (11718748_at) / Fold change /veh C1QL1 (11718748_at) / RFU TMPRSS4 (11747572_a_at) / Fold change /veh TMPRSS4 (11747572_a_at) / RFU HAMP (11756126_x_at) / Fold change /veh HAMP (11756126_x_at) / RFU RNFT2 (11725882_a_at) / Fold change /veh RNFT2 (11725882_a_at) / RFU NR4A2 (11747474_a_at) / Fold change /veh NR4A2 (11747474_a_at) / RFU ABCC12 (11746883_a_at) / Fold change /veh ABCC12 (11746883_a_at) / RFU TMEM136 (11760407_x_at) / Fold change /veh TMEM136 (11760407_x_at) / RFU CLDN22 /// WWC2 (11732394_at) / Fold change /veh CLDN22 /// WWC2 (11732394_at) / RFU HLA-DPB1 (11760878_x_at) / Fold change /veh HLA-DPB1 (11760878_x_at) / RFU SPINT1 (11716480_a_at) / Fold change /veh SPINT1 (11716480_a_at) / RFU GAP43 (11754022_s_at) / Fold change /veh GAP43 (11754022_s_at) / RFU A4GNT (11735810_at) / Fold change /veh A4GNT (11735810_at) / RFU PRB3 (11715151_x_at) / Fold change /veh PRB3 (11715151_x_at) / RFU TUBB4B (11761932_at) / Fold change /veh TUBB4B (11761932_at) / RFU CAPN14 (11732068_a_at) / Fold change /veh CAPN14 (11732068_a_at) / RFU TMCC2 (11721928_a_at) / Fold change /veh TMCC2 (11721928_a_at) / RFU IRGQ (11745062_a_at) / Fold change /veh IRGQ (11745062_a_at) / RFU FAM174B (11720279_a_at) / Fold change /veh FAM174B (11720279_a_at) / RFU TMPRSS4 (11748680_a_at) / Fold change /veh TMPRSS4 (11748680_a_at) / RFU FAM212B (11763350_a_at) / Fold change /veh FAM212B (11763350_a_at) / RFU PLEKHG5 (11743358_a_at) / Fold change /veh PLEKHG5 (11743358_a_at) / RFU ZSCAN30 (11745921_a_at) / Fold change /veh ZSCAN30 (11745921_a_at) / RFU CMKLR1 (11741424_a_at) / Fold change /veh CMKLR1 (11741424_a_at) / RFU LOC101060620 /// MAPK8IP1 (11723275_at) / Fold change /veh LOC101060620 /// MAPK8IP1 (11723275_at) / RFU SPTSSB (11747773_x_at) / Fold change /veh SPTSSB (11747773_x_at) / RFU PRSS12 (11739890_at) / Fold change /veh PRSS12 (11739890_at) / RFU BIN1 (11741810_x_at) / Fold change /veh BIN1 (11741810_x_at) / RFU WNT11 (11732464_a_at) / Fold change /veh WNT11 (11732464_a_at) / RFU C10orf10 (11716521_a_at) / Fold change /veh C10orf10 (11716521_a_at) / RFU C5orf56 (11738089_at) / Fold change /veh C5orf56 (11738089_at) / RFU CYB561 (11721691_x_at) / Fold change /veh CYB561 (11721691_x_at) / RFU ANKRD19P (11752326_a_at) / Fold change /veh ANKRD19P (11752326_a_at) / RFU OR2T12 /// OR2T33 /// OR2T8 (11738714_s_at) / Fold change /veh OR2T12 /// OR2T33 /// OR2T8 (11738714_s_at) / RFU VCAN (11748164_a_at) / Fold change /veh VCAN (11748164_a_at) / RFU JSRP1 (11732532_at) / Fold change /veh JSRP1 (11732532_at) / RFU KRTAP10-11 (11738290_x_at) / Fold change /veh KRTAP10-11 (11738290_x_at) / RFU MYO3A (11730013_a_at) / Fold change /veh MYO3A (11730013_a_at) / RFU EBF3 (11725865_a_at) / Fold change /veh EBF3 (11725865_a_at) / RFU CAMK2N1 (11719241_x_at) / Fold change /veh CAMK2N1 (11719241_x_at) / RFU C5orf56 (11738088_a_at) / Fold change /veh C5orf56 (11738088_a_at) / RFU OLFML3 (11715873_a_at) / Fold change /veh OLFML3 (11715873_a_at) / RFU LOC100653217 /// NTM (11731650_a_at) / Fold change /veh LOC100653217 /// NTM (11731650_a_at) / RFU MAPK11 (11762145_a_at) / Fold change /veh MAPK11 (11762145_a_at) / RFU FIZ1 (11724087_x_at) / Fold change /veh FIZ1 (11724087_x_at) / RFU OASL (11726364_x_at) / Fold change /veh OASL (11726364_x_at) / RFU SOX15 (11748057_x_at) / Fold change /veh SOX15 (11748057_x_at) / RFU CD79A (11719716_a_at) / Fold change /veh CD79A (11719716_a_at) / RFU HIST1H1D (11736915_at) / Fold change /veh HIST1H1D (11736915_at) / RFU CASKIN2 (11723855_a_at) / Fold change /veh CASKIN2 (11723855_a_at) / RFU LOC730098 (11760151_x_at) / Fold change /veh LOC730098 (11760151_x_at) / RFU OR4N2 (11742367_at) / Fold change /veh OR4N2 (11742367_at) / RFU PRRT2 (11749266_a_at) / Fold change /veh PRRT2 (11749266_a_at) / RFU SNX32 (11753110_a_at) / Fold change /veh SNX32 (11753110_a_at) / RFU CDHR5 (11726645_a_at) / Fold change /veh CDHR5 (11726645_a_at) / RFU RCAN1 (11760418_a_at) / Fold change /veh RCAN1 (11760418_a_at) / RFU FAM167A (11723789_a_at) / Fold change /veh FAM167A (11723789_a_at) / RFU FAM26E (11764081_at) / Fold change /veh FAM26E (11764081_at) / RFU ISYNA1 (11749810_s_at) / Fold change /veh ISYNA1 (11749810_s_at) / RFU ACY1 (11761880_at) / Fold change /veh ACY1 (11761880_at) / RFU 11764098_at / Fold change /veh 11764098_at / RFU SAMD14 (11745864_x_at) / Fold change /veh SAMD14 (11745864_x_at) / RFU NPB (11741838_a_at) / Fold change /veh NPB (11741838_a_at) / RFU TMPRSS6 (11731388_a_at) / Fold change /veh TMPRSS6 (11731388_a_at) / RFU KRTAP10-2 (11738614_at) / Fold change /veh KRTAP10-2 (11738614_at) / RFU ARHGAP8 /// PRR5-ARHGAP8 (11727945_x_at) / Fold change /veh ARHGAP8 /// PRR5-ARHGAP8 (11727945_x_at) / RFU KRTAP5-7 /// NADSYN1 (11734609_at) / Fold change /veh KRTAP5-7 /// NADSYN1 (11734609_at) / RFU RASL12 (11751679_a_at) / Fold change /veh RASL12 (11751679_a_at) / RFU CDKN2B (11736163_a_at) / Fold change /veh CDKN2B (11736163_a_at) / RFU PRF1 (11729649_at) / Fold change /veh PRF1 (11729649_at) / RFU, ZNF638 /// ZNF638-IT1 / Fold change vs veh, ZNF638 /// ZNF638-IT1 / RFU, PANK3 / Fold change vs veh, PANK3 / RFU, SH3YL1 / Fold change vs veh, SH3YL1 / RFU, ZEB2 / Fold change vs veh, ZEB2 / RFU, NRIP1 / Fold change vs veh, NRIP1 / RFU, PTTG1IP / Fold change vs veh, PTTG1IP / RFU, CAPN2 / Fold change vs veh, CAPN2 / RFU, MED14 / Fold change vs veh, MED14 / RFU, SNORA58 / Fold change vs veh, SNORA58 / RFU, C1orf63 / Fold change vs veh, C1orf63 / RFU, LRRFIP1 / Fold change vs veh, LRRFIP1 / RFU, NDUFAF7 / Fold change vs veh, NDUFAF7 / RFU, SLC12A2 / Fold change vs veh, SLC12A2 / RFU, IBTK / Fold change vs veh, IBTK / RFU, ESF1 / Fold change vs veh, ESF1 / Fold change vs veh, TMEM50B / RFU, TAOK1 / Fold change vs veh, TAOK1 / RFU, ACBD3 / Fold change vs veh, ACBD3 / RFU, TMA16 / Fold change vs veh, TMA16 / RFU, RWDD3 / Fold change vs veh, RWDD3 / RFU, BCAT1 / Fold change vs veh, BCAT1 / RFU, EDEM3 / Fold change vs veh, EDEM3 / RFU, TMEM33 / Fold change vs veh, TMEM33 / RFU, WDR75 / Fold change vs veh, WDR75 / RFU, AHCTF1 / Fold change vs veh, AHCTF1 / RFU, TFRC / Fold change vs veh, TFRC / RFU, ZDHHC17 / Fold change vs veh, ZDHHC17 / RFU, NOM1 / Fold change vs veh, NOM1 / RFU, ARL8B / Fold change vs veh, ARL8B / RFU, ZBTB11 / Fold change vs veh, ZBTB11 / RFU, TAMM41 / Fold change vs veh, TAMM41 / RFU, KIAA1704 /// LOC100996395 / Fold change vs veh, KIAA1704 /// LOC100996395 / RFU, ING1 / Fold change vs veh, ING1 / RFU, TRMT61B / Fold change vs veh, TRMT61B / RFU, FUBP3 / Fold change vs veh, FUBP3 / RFU, TP53 / Fold change vs veh, TP53 / RFU, TNKS2 / Fold change vs veh, TNKS2 / RFU, ZFP14 / Fold change vs veh, ZFP14 / RFU, ACTR2 / Fold change vs veh, ACTR2 / RFU, PPP3R1 / Fold change vs veh, PPP3R1 / RFU, PIK3R1 / Fold change vs veh, PIK3R1 / RFU, HNRNPA1 / Fold change vs veh, HNRNPA1 / RFU, RNF170 / Fold change vs veh, RNF170 / RFU, ZNF28 / Fold change vs veh, ZNF28 / RFU, RNGTT / Fold change vs veh, RNGTT / RFU, OGT / Fold change vs veh, OGT / RFU, BRD1 / Fold change vs veh, BRD1 / RFU, MARS / Fold change vs veh, MARS / RFU, ZNF655 / Fold change vs veh, ZNF655 / RFU, FAHD1 / Fold change vs veh, FAHD1 / RFU, BDP1 / Fold change vs veh, BDP1 / RFU, LRRCC1 / Fold change vs veh, LRRCC1 / RFU, ARID1A / Fold change vs veh, ARID1A / RFU, ZNF146 / Fold change vs veh, ZNF146 / RFU, ZNF330 / Fold change vs veh, ZNF330 / RFU, GPN3 / Fold change vs veh, GPN3 / RFU, C9orf123 / Fold change vs veh, C9orf123 / RFU, N4BP2L2 / Fold change vs veh, N4BP2L2 / RFU, ARFIP1 / Fold change vs veh, ARFIP1 / RFU, FAM179B / Fold change vs veh, FAM179B / RFU, BCL10 / Fold change vs veh, BCL10 / RFU, UHRF1BP1L / Fold change vs veh, UHRF1BP1L / RFU, BET1 / Fold change vs veh, BET1 / RFU, CNOT2 / Fold change vs veh, CNOT2 / RFU, ZNF268 / Fold change vs veh, ZNF268 / Fold change vs veh, ZNF507 / RFU, DGCR2 / Fold change vs veh, DGCR2 / RFU, WDSUB1 / Fold change vs veh, WDSUB1 / Fold change vs veh, HSP90B1 /// MIR3652 / RFU, ADSS / Fold change vs veh, ADSS / RFU, GK / Fold change vs veh, GK / RFU, ZNF148 / Fold change vs veh, ZNF148 / RFU, TAF9 / Fold change vs veh, TAF9 / RFU, SLC1A5 / Fold change vs veh, SLC1A5 / RFU, SLMO2 / Fold change vs veh, SLMO2 / RFU, ABCC4 / Fold change vs veh, ABCC4 / RFU, LOC101060439 /// RAP1B / Fold change vs veh, LOC101060439 /// RAP1B / RFU, RFX7 / Fold change vs veh, RFX7 / RFU, GTPBP10 / Fold change vs veh, GTPBP10 / RFU, CNEP1R1 / Fold change vs veh, CNEP1R1 / RFU, BIVM-ERCC5 /// ERCC5 / Fold change vs veh, BIVM-ERCC5 /// ERCC5 / RFU, ILF3 / Fold change vs veh, ILF3 / RFU 11762660_at / Fold change /veh 11762660_at / RFU VCAN (11757783_s_at) / Fold change /veh VCAN (11757783_s_at) / RFU DDX43 (11728927_at) / Fold change /veh DDX43 (11728927_at) / RFU KRT8 (11758188_x_at) / Fold change /veh KRT8 (11758188_x_at) / RFU NKD1 (11759106_at) / Fold change /veh NKD1 (11759106_at) / RFU SRD5A1 (11742802_a_at) / Fold change /veh SRD5A1 (11742802_a_at) / RFU TPSAB1 /// TPSB2 (11721975_s_at) / Fold change /veh TPSAB1 /// TPSB2 (11721975_s_at) / RFU GSTM3 (11746129_a_at) / Fold change /veh GSTM3 (11746129_a_at) / RFU IL23R (11737362_x_at) / Fold change /veh IL23R (11737362_x_at) / RFU TMEM51 (11727254_a_at) / Fold change /veh TMEM51 (11727254_a_at) / RFU PIWIL2 (11732686_x_at) / Fold change /veh PIWIL2 (11732686_x_at) / RFU ORM1 (11744905_x_at) / Fold change /veh ORM1 (11744905_x_at) / RFU CCDC152 (11743942_at) / Fold change /veh CCDC152 (11743942_at) / RFU ECM1 (11717891_a_at) / Fold change /veh ECM1 (11717891_a_at) / RFU IL23R (11748794_a_at) / Fold change /veh IL23R (11748794_a_at) / RFU TNFAIP8L3 (11732012_x_at) / Fold change /veh TNFAIP8L3 (11732012_x_at) / RFU MBOAT4 (11741988_at) / Fold change /veh MBOAT4 (11741988_at) / RFU 11764193_at / Fold change /veh 11764193_at / RFU TMEM53 (11763286_at) / Fold change /veh TMEM53 (11763286_at) / RFU MAGEB2 (11727129_at) / Fold change /veh MAGEB2 (11727129_at) / RFU TMEM200A (11744735_a_at) / Fold change /veh TMEM200A (11744735_a_at) / RFU CCDC152 (11751479_a_at) / Fold change /veh CCDC152 (11751479_a_at) / RFU FAM211A (11726209_a_at) / Fold change /veh FAM211A (11726209_a_at) / RFU RGS16 (11746705_a_at) / Fold change /veh RGS16 (11746705_a_at) / RFU VCAN (11755009_s_at) / Fold change /veh VCAN (11755009_s_at) / RFU RHOB (11743442_s_at) / Fold change /veh RHOB (11743442_s_at) / RFU RGS16 (11720943_a_at) / Fold change /veh RGS16 (11720943_a_at) / RFU RGS16 (11720944_at) / Fold change /veh RGS16 (11720944_at) / RFU, VPS4B / Fold change vs veh, VPS4B / RFU, CREB1 / Fold change vs veh, CREB1 / RFU, DNAJC13 / Fold change vs veh, DNAJC13 / RFU, GNAQ / Fold change vs veh, GNAQ / RFU, CDK5R1 / Fold change vs veh, CDK5R1 / RFU, ZRANB3 / Fold change vs veh, ZRANB3 / RFU, CUL4A / Fold change vs veh, CUL4A / RFU, CCNY / Fold change vs veh, CCNY / RFU, UFL1 / Fold change vs veh, UFL1 / RFU, COG3 / Fold change vs veh, COG3 / RFU, DIAPH2 / Fold change vs veh, DIAPH2 / RFU, SKA2 / Fold change vs veh, SKA2 / RFU, AFF3 / Fold change vs veh, AFF3 / RFU, LMF1 / Fold change vs veh, LMF1 / RFU, IPO11 / Fold change vs veh, IPO11 / RFU, DFFB / Fold change vs veh, DFFB / RFU, FOXP1 / Fold change vs veh, FOXP1 / RFU, CARD8 / Fold change vs veh, CARD8 / RFU, STRN3 / Fold change vs veh, STRN3 / RFU, ADK / Fold change vs veh, ADK / RFU, RASSF2 / Fold change vs veh, RASSF2 / RFU, WIPF1 / Fold change vs veh, WIPF1 / RFU, LARP1B / Fold change vs veh, LARP1B / RFU, RASA1 / Fold change vs veh, RASA1 / RFU, RB1 / Fold change vs veh, RB1 / RFU, PPFIA1 / Fold change vs veh, PPFIA1 / RFU, MAT2A / Fold change vs veh, MAT2A / RFU, CCT5 / Fold change vs veh, CCT5 / RFU, WDR92 / Fold change vs veh, WDR92 / RFU, CUX1 / Fold change vs veh, CUX1 / RFU, TTC7A / Fold change vs veh, TTC7A / RFU, TMEM135 / Fold change vs veh, TMEM135 / RFU, DEPTOR / Fold change vs veh, DEPTOR / RFU, CPM / Fold change vs veh, CPM / RFU, DNAJB6 / Fold change vs veh, DNAJB6 / RFU, CACNA2D3 / Fold change vs veh, CACNA2D3 / RFU, DTX4 / Fold change vs veh, DTX4 / RFU, TFCP2 / Fold change vs veh, TFCP2 / RFU, GMCL1 /// GMCL1P1 / Fold change vs veh, GMCL1 /// GMCL1P1 / RFU, AEBP2 / Fold change vs veh, AEBP2 / RFU, SNHG1 /// SNORD22 /// SNORD25 /// SNORD26 /// SNORD27 /// SNORD28 /// SNORD29 /// SNORD31 / Fold change vs veh, SNHG1 /// SNORD22 /// SNORD25 /// SNORD26 /// SNORD27 /// SNORD28 /// SNORD29 /// SNORD31 / Fold change (Aza/veh), C12orf56 (ProbeSet 11735607_a_at) / Fold change (ACY-1035/veh), C12orf56 (ProbeSet 11735607_a_at) / Fold change (Aza/veh), FGFR1OP (ProbeSet 11751329_s_at) / Fold change (ACY-1035/veh), FGFR1OP (ProbeSet 11751329_s_at) / Fold change (Aza/veh), VPS36 (ProbeSet 11739960_a_at) / Fold change (ACY-1035/veh), VPS36 (ProbeSet 11739960_a_at) / RFU SYPL1 (11715823_x_at) / Fold change /veh SYPL1 (11715823_x_at) / RFU IGFBP7 (11715501_s_at) / Fold change /veh IGFBP7 (11715501_s_at) / RFU REEP3 (11722064_at) / Fold change /veh REEP3 (11722064_at) / RFU IGLL1 (11728026_x_at) / Fold change /veh IGLL1 (11728026_x_at): dose or concentration left out as unconfirmed
# Conditions: ProbeSet 11731093_s_at; LIST B
structure (smiles),measurement,value
Nc1ccc(-c2cccs2)cc1NC(=O)c1ccc2c(c1)cc(C1CC1)n2CCN1CCOCC1 [ACY-1035],"Fold change vs veh, BRD1",0.87
